Source: US20110217241A1, “CONJUGATES OF 19F MR IMAGING TRACERS FOR USE IN MULTI-CHROMIC MRI IMAGING” (University of Maryland, Baltimore, priority 2008, published 2011)

Assays:
[1] = 19F relaxation times (T1, T2) under different solution conditions; type: physicochemical; settings: for Relaxation Times T1 / Relaxation Times T2 / T1 percentage relative to T1 under Condition 1 / T2 percentage relative to T2 under Condition 1: pH 7, 50 mM; for Relaxation Times T1 / Relaxation Times T2 / pH dependency of 19F relaxation times T1 and T2: 11.7 Tesla; for pH dependency of 19F relaxation times T1 and T2: pH 6, 7 & 8
Description: The ^19F T1 and T2 were determined under different solution conditions for the paramagnetic ^19FIT-Gd^3+ and for the diamagnetic ^19FIT-Y^3+ from the above example (and shown in FIG. 6). The conditions and results are summarized below in Table 1. The percentage numbers for Conditions 2-5 were calculated relative to T1 or T2 under Condition 1. […] For example, the weakly paramagnetic O2 had little effect on the ^19F T1 and T2 of ^19FIT-Gd^3+.
19F T1 and T2 were also determined for ^19FIT-Gd^3+ and ^19FIT-Y^3+ at different pH values (pH 6 7 & 8). […] The NMR field strength for the testing was 11.7 Tesla.

[2] = 19F resonance frequency (chemical shift) with different metal ions; type: physicochemical; settings: FIG. 6
From the text: In FIG. 6, the darker bars indicate paramagnetic ion complexes and the lighter bars indicate diamagnetic complexes. As shown in the graph of FIG. 6, the different metal ions led to different ^19F resonance frequencies, ranging from δ(^19FIT-Bi^3+)=−71.17 ppm to δ(^19FIT-Tb^3+)=−63.32 ppm. In each case, there was a single ^19F signal.

[3] = Condition 1: PBS buffer saturated with N2, 25° C.
[4] = Condition 2: PBS buffer saturated with O2, 25° C.
[5] = Condition 3: PBS buffer saturated with N2, 45° C.
[6] = Condition 4: Human sera with 10% D2O saturated with N2, 25° C.
[7] = Condition 5: 10% w/v bovine serum albumin in PBS buffer saturated with N2, 25° C.

| Structure (SMILES) | Relaxation Times T1 [1, 3] [ms] | Relaxation Times T2 [1, 3] [ms] | T1 percentage relative to T1 under Condition 1 [1, 4] | T2 percentage relative to T2 under Condition 1 [1, 4] | Relaxation Times T1 [1, 4] [ms] | Relaxation Times T2 [1, 4] [ms] | T1 percentage relative to T1 under Condition 1 [1, 5] | T2 percentage relative to T2 under Condition 1 [1, 5] | Relaxation Times T1 [1, 5] [ms] | Relaxation Times T2 [1, 5] [ms] | T1 percentage relative to T1 under Condition 1 [1, 6] | T2 percentage relative to T2 under Condition 1 [1, 6] | Relaxation Times T1 [1, 6] [ms] | Relaxation Times T2 [1, 6] [ms] | T1 percentage relative to T1 under Condition 1 [1, 7] | T2 percentage relative to T2 under Condition 1 [1, 7] | Relaxation Times T1 [1, 7] [ms] | Relaxation Times T2 [1, 7] [ms] | pH dependency of 19F relaxation times T1 and T2 [1] | 19F resonance frequency δ [2] [ppm] | other results |
| --- | --- | --- | --- | --- | --- | --- | --- | --- | --- | --- | --- | --- | --- | --- | --- | --- | --- | --- | --- | --- | --- |
| O=C([O-])CN1CCN(CC(=O)[O-])CCN(CC(=O)NCCOCCOCCOCCOC(C(F)(F)F)(C(F)(F)F)C(F)(F)F)CCN(CC(=O)[O-])CC1.[Gd+3] [^19FIT-Gd^3+] | 4.24 | 1.66 | (−0.7%) | (−6.0%) | 4.27 | 1.56 | (−6.4%) | (−26.5%) | 3.97 | 1.22 | (−0.7%) | (−48.2%) | 4.27 | 0.86 | (6.6%) | (−66.9%) | 4.52 | 0.55 | neither complex showed significant pH dependency |  | effect of weakly paramagnetic O2 on 19F T1 and T2 ([1]; Condition 2 vs Condition 1): little effect |
| O=C([O-])CN1CCN(CC(=O)[O-])CCN(CC(=O)NCCOCCOCCOCCOC(C(F)(F)F)(C(F)(F)F)C(F)(F)F)CCN(CC(=O)[O-])CC1.[Y+3] [^19FIT-Y^3+] | 1498 | 1057 | (−28.3%) | (−37.1%) | 1074 | 665 | (42.4%) | (43.0%) | 2133 | 1511 | (−19.2%) | (−79.8%) | 1211 | 214 | (−19.9%) | (−86.8%) | 1200 | 139 | neither complex showed significant pH dependency |  |  |
| O=C([O-])CN1CCN(CC(=O)[O-])CCN(CC(=O)NCCOCCOCCOCCOC(C(F)(F)F)(C(F)(F)F)C(F)(F)F)CCN(CC(=O)[O-])CC1.[Tb+3] [^19FIT-Tb^3+] |  |  |  |  |  |  |  |  |  |  |  |  |  |  |  |  |  |  |  | −63.32 |  |
| O=C([O-])CN1CCN(CC(=O)[O-])CCN(CC(=O)NCCOCCOCCOCCOC(C(F)(F)F)(C(F)(F)F)C(F)(F)F)CCN(CC(=O)[O-])CC1.[Bi+3] [^19FIT-Bi^3+] |  |  |  |  |  |  |  |  |  |  |  |  |  |  |  |  |  |  |  | −71.17 |  |
